Data from ChEMBL document CHEMBL2074011, “Comparison of furosemide and vinblastine secretion from cell lines overexpressing multidrug resistance protein (P-glycoprotein) and multidrug resistance-associated proteins (MRP1 and MRP2)” (Pharmacology, 2002).

What was measured:
[1] = target: ATP-binding cassette sub-family C member 2 (Homo sapiens, UniProt Q92887); experiment: TP_TRANSPORTER: inhibition of Vinblastine transepithelial transport (basal to apical)(Vinblastine: 0.035 uM, Sulfinpyrazone: 1000 uM) in MRP2-expressing MDCKII cells; assay type: functional, cell-based; conditions: dog, mdck-ii
ATP-binding cassette sub-family C member 2, sequence (Q92887 whole entry): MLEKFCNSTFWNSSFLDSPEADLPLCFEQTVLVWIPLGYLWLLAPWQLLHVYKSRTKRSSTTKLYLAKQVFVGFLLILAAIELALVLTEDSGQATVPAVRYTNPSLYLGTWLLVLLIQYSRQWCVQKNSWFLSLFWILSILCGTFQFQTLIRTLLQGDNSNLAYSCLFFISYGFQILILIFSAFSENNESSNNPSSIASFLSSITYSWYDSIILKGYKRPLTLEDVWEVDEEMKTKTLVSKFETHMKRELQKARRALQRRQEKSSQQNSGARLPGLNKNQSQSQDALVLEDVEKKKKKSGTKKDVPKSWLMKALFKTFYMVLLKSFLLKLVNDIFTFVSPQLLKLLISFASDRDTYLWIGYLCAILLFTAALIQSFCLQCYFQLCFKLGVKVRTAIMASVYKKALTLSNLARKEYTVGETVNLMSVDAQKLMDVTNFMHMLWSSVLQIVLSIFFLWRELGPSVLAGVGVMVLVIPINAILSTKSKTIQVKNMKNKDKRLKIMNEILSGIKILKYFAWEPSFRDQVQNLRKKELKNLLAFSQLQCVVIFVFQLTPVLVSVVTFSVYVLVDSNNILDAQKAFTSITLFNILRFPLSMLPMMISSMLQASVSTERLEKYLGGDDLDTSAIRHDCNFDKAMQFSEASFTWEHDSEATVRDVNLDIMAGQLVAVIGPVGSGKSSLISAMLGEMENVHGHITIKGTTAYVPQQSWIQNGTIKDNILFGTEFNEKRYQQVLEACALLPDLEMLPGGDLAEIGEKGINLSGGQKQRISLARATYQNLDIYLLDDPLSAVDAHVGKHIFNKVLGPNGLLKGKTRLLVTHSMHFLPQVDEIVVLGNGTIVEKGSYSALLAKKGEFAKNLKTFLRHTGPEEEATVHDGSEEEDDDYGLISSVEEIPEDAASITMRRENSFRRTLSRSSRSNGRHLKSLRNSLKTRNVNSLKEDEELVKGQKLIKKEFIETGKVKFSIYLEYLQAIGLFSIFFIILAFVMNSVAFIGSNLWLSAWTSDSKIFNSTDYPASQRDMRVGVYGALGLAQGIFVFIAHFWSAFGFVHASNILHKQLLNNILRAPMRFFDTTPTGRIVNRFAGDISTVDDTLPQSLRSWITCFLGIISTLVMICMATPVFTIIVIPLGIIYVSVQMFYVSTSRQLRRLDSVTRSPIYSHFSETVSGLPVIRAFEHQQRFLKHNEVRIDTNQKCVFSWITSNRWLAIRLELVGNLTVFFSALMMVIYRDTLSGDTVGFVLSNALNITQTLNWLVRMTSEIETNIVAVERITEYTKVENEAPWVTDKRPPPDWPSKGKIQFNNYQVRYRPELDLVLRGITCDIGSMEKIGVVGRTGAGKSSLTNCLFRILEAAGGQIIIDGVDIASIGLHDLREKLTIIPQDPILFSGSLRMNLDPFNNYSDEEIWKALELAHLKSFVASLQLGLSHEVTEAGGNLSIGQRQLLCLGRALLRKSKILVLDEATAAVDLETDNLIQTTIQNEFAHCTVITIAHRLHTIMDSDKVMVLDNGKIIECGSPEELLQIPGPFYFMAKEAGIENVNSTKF

[2] = target: Multidrug resistance-associated protein 1 (Homo sapiens, UniProt P33527); experiment: TP_TRANSPORTER: transepithelial transport (basal to apical) in MRP1-expressing LLC-PK1cell; assay type: functional, cell-based; conditions: pig, llc-pk1
Multidrug resistance-associated protein 1, sequence (P33527 whole entry): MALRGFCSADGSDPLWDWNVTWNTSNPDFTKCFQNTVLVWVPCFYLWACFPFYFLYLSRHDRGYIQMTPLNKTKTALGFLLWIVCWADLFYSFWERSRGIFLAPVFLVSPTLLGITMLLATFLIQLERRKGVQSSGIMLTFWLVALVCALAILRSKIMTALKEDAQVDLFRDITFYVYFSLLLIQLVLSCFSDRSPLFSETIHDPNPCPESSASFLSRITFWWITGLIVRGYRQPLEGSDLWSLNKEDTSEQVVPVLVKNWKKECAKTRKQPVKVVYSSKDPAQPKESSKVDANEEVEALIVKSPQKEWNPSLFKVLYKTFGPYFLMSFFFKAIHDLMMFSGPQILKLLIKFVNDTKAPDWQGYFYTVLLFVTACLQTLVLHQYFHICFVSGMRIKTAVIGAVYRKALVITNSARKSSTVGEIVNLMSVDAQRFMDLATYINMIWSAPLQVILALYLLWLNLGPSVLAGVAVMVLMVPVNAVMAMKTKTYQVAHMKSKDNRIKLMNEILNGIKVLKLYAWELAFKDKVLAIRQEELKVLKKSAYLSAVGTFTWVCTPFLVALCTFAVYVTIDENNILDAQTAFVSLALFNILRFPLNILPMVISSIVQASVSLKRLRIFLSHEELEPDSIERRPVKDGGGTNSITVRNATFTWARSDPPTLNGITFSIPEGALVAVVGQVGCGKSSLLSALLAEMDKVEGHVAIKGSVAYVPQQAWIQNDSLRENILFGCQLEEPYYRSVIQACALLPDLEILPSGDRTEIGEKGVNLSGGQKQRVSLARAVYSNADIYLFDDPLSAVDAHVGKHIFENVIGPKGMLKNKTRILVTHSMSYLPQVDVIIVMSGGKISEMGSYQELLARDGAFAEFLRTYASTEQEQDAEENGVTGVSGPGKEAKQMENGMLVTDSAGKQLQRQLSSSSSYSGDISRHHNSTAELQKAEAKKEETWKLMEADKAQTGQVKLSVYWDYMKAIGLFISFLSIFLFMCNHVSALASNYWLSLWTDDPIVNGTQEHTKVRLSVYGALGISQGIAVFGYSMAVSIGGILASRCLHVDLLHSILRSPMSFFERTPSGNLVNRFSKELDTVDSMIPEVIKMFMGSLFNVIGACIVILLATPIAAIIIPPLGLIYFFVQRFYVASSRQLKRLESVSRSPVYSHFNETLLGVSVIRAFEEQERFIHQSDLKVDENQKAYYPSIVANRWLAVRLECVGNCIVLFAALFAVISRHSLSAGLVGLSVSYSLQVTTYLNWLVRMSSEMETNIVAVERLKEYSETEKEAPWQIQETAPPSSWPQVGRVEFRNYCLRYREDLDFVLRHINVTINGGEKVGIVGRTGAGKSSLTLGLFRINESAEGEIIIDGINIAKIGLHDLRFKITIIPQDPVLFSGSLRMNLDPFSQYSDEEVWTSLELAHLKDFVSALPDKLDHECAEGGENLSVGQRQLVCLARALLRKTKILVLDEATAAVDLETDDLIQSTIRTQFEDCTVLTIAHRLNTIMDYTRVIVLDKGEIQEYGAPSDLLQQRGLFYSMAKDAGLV

O=C1C(CC[S+]([O-])c2ccccc2)C(=O)N(c2ccccc2)N1c1ccccc1 (configuration not stated) [SULFINPYRAZONE]
Activity [1]: inhibitor [+]

CC[C@]1(O)C[C@@H]2CN(CCc3c([nH]c4ccccc34)[C@@](C(=O)OC)(c3cc4c(cc3OC)N(C)[C@H]3[C@@](O)(C(=O)OC)[C@H](OC(C)=O)[C@]5(CC)C=CCN6CC[C@]43[C@@H]65)C2)C1 [VINBLASTINE]
Activity [2]: substrate [+]
